# Measured values: patent publication US20250221981A1, “MAT2A INHIBITOR AND/OR TSG101 INHIBITOR FOR USE IN ANTIVIRAL THERAPY” (CAMBRIDGE ENTERPRISE LIMITED, priority 2022, published 2025)
# Experiments:
# Zika African strain = test: Western blot of Zika E protein in VERO E6 cells, African strain; assay type: cell-based, Zika virus; conditions: 20 μM, MOI >10, 48 hrs
# Method: (B) Zika: VERO E6 cells were plated. The following day 20 μM PF-9366 or DMSO control was added to media. After 3 hrs cells were infected with Zika African strain, American Strain or Mock infected (MOI >10). After 48 hrs cells were harvested by scraping, pelleted and lysed into lysis buffer. Western blot was then conducted on the lysed cells. Protein embedded SDS-PAGE gels were transferred to membranes overnight and then probed for Zika E protein and GAPDH as a control.
# For Flavivirus infections VERO E6 cells were infected with either African (Afn) or American (Amer) Zika at a multiplicity of infection (MOI) greater than 10, diluted in appropriate medium. At 1 hour post infection (hpi) medium was removed, cells were washed twice with phosphate-buffered saline (PBS), and fresh medium was added. At 48 hpi cells were either harvested for western blot.
# Cell lysate preparation and western blots were performed as described in Ren et al. (J Gen Virol. 2012 February; 93 (Pt 2): 319-329). Primary antibodies used were ab53977 (VP1), PAb416 (LTAg), sc-166452 (MAT2A/1A), ab110226 (VP16), sc-53070 (ICP0), anti-Zika E Protein, and either anti-GAPDH or anti-tubulin as a loading control, followed by IRDye 680LT-, or IRDye 800CW-conjugated secondary antibodies. Imaging was performed using the LI-COR Odyssey Infrared Imaging system. Quantification was performed using LI-COR Image Studio Software. […]
# [1] = system: Herpes Simplex Virus-1 (HSV-1); test: HSV-1 titre by plaque assay (HaCaT cells infected, titrated on VERO cells); assay type: cell-based; conditions: 20 μM, MOI 10, 16 hrs
# Method: (§1) FIG. 9: Inhibition of MAT2A with PF-9366 reduces Herpes Simplex Virus-1 (HSV-1) virion assembly Immortalised keratinocyte (HaCaT) cells were plated and treated with 20 μM PF-9366 or DMSO control. After 3 hrs cells were infected with HSV-1 (MOI 10). After 16 hrs cells were harvested by scraping and either pelleted for western blot or freeze/thawed for titration. To titre: VERO cells were plated and the following day infected with 10-fold dilutions, at 1 hpi cells were overlayed with CMC/media. At 48 hpi cells were fixed and stained with toluidine blue. To western blot: Pellets were lysed and run on SDS-PAGE gel. Proteins were transferred overnight to nitrocellulose membranes. Membranes were probed for HSV-1 ICP0 and VP16 proteins and Tubulin as a control.
# (§2) For HSV-1 infections HaCaT cells were infected with HSV-1 at a multiplicity of infection (MOI) of 10 diluted in appropriate medium. At 1 hour post infection (hpi) medium was removed, cells were washed twice with phosphate-buffered saline (PBS), and fresh medium was added with or without inhibitors. At 16 hpi cells were either harvested for western blot or virus titre by plaque assay.
# For HSV-1, confluent VERO cell monolayers were infected with 10-fold dilutions of samples. […] Cells were fixed at 48 hpi and stained with toluidine blue, allowing plaques to be counted. […]
# [2] = system: Herpes Simplex Virus-1 (HSV-1); test: Western blot of HSV-1 ICP0 and VP16 proteins in HaCaT cells; assay type: cell-based; conditions: 20 μM, MOI 10, 16 hrs
# Method: as §1, §2
# (§3) Cell lysate preparation and western blots were performed as described in Ren et al. (J Gen Virol. 2012 February; 93 (Pt 2): 319-329). […] Quantification was performed using LI-COR Image Studio Software.
# MAT2A = test: Western blot of cellular MAT2A expression in BKPyV infected RPTE/TERT1 cells; assay type: cell-based, human; conditions: 10 μM; BKPyV MOI 3; 48 hpi; normalised to tubulin
# Method: (C)(i) Effect of PF-9366 on viral early and late gene and cellular MAT2A expression: Cells were infected with BKPyV (MOI 3) in media containing appropriate drug concentrations. At 1 hpi infectious media was removed, cells were washed and fresh media with appropriate drug concentrations was added. Cells were harvested at 48 hpi and a western blot performed. Membranes were blotted for viral late gene VP1, LTAg, cellular MAT2A/MAT1A, and tubulin as a loading control.
# (ii) Cellular MAT2A expression increases at lower PF-9366 concentrations: The density of MAT2A expression (lower western blot band) was measured, normalized to tubulin loading control (LiCor Image Studio Software), n=3.
# It has previously been noted by Quinlan et al. (Nat Chem Biol. 2017 13 (7): 785-792) that treatment with PF-9366 can increase MAT2A expression as a compensatory mechanism within cells. […] At 48 hpi cells were harvested and protein expression was analysed by western blotting (FIG. 3C(i)). MAT2A expression was quantified from band intensities, normalised to the tubulin loading control and plotted (FIG. 3C(ii), n=3). […]
# as §3
# Sindbis virus (SINV) = test: SINV titre by plaque assay (BHK-21 cells infected, titrated on BSR cells); assay type: cell-based; conditions: 2 μM, MOI >10, 24 hrs, initial tests
# Method: (A) SINV and SFV4: BHK-21 cells were plated. The following day 2 μM PF-9366 or DMSO control was added to media. After 3 hrs cells were infected with SINV or SFV4 (MOI >10). After 24 hrs cells were harvested by scraping. Cells were either pelleted for western blot or freeze/thawed for titration. To titre: BSR cells were plated and the following day infected with 10-fold dilutions, at 1 hpi cells were overlayed with LMA in 2×MEM (+5% FCS). At 72 hpi cells were fixed and stained with toluidine blue.
# For Alphavirus infections BHK-21 cells were infected with either SINV or SFV-4 at a multiplicity of infection (MOI) greater than 10, diluted in appropriate medium. At 1 hour post infection (hpi) medium was removed, cells were washed twice with phosphate-buffered saline (PBS), and fresh medium was added. At 24 hpi supernatants were harvested for virus titre by plaque assay.
# For SINV and SFV4, confluent BSR cell monolayers were infected with 10-fold dilutions of samples. At 1 hpi cells were overlayed with low melting-point agarose in 2×MEM (+5% FCS). Cells were fixed at 72 hpi and stained with toluidine blue, allowing plaques to be counted.
# TSG101 inhibitor Ilaprazole (Sigma-Aldrich) was diluted in 100% DMSO. […]
# RPTE/hTERT cells = test: Cell viability assay, CellTiter-Blue fluorescence
# Method: RPTE/hTERT cells were treated with MAT2A inhibitors at increasing concentrations for 48 hrs and assayed for cell viability using CellTiter-Blue fluorescence. Experiments were conducted using biological triplicates.
# Experiment was conducted using biological triplicates.
# Cell viability was assessed using the Cell-Titer-Blue assay (Promega), following manufacturers guidelines.
smiles,measurement,setting,value
CN(C)CCc1nnc2cc(-c3ccccc3)c3cc(Cl)ccc3n12 [PF-9366],"viral protein expression (Zika E protein), African strain",Zika African strain,reduction
same,reduction in HSV-1 viral titres,[1],greater than 100 fold
same,impact on viral protein expression (ICP0 and VP16),[2],little impact
same,increase in the cellular expression of MAT2A,MAT2A,8 fold
same,reduction in viral titre (SINV),Sindbis virus (SINV),7-10 fold
COc1ccc(-c2c(Nc3ccccn3)[nH]c3c(C4=CCCCC4)c(-c4ccccc4)nn3c2=O)cc1 [AG-270],effect on cell viability and metabolism,"RPTE/hTERT cells; MAT2A inhibitor (AG270 1 μM, AZ33 125 nM) in combination with Ilaprazole (5 μM), until 144 hr",little effect
same,effect on cell viability and metabolism,"RPTE/hTERT cells; at concentrations inhibiting BKPyV replication, 48 hrs",little effect
